Data: ChEMBL document CHEMBL1201862, “PubChem BioAssay data set” (2004)
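Results reflect a 48-hour exposure of cells in 96-well plates to compound at five concentrations. GI50: concentration for 50% inhibition of growth.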 Active and inactive are the calls of the source. Cut-off read from the data, not from the text of the source: active = GI50 up to about 1.1 µM and inactive = higher.

Experiments:
Test in all cases: NCI tumour cell line growth inhibition, 48 h
NCI/ADR-RES = system: NCI/ADR-RES
K562 = system: K562
Malme-3M = system: Malme-3M
CAKI-1 = system: CAKI-1
HCT-15 = system: HCT-15
ACHN = system: ACHN
HCC 2998 = system: HCC 2998
OVCAR-4 = system: OVCAR-4
SK-OV-3 = system: SK-OV-3
HL-60 = system: HL-60
A549 = system: A549
SNB-19 = system: SNB-19
Hs-578T = system: Hs-578T
RPMI-8226 = system: RPMI-8226
UACC-257 = system: UACC-257
SF-539 = system: SF-539
COLO 205 = system: COLO 205
A498 = system: A498
HT-29 = system: HT-29
T47D = system: T47D

Row | Structure (SMILES) | GI50 (NCI/ADR-RES) | GI50 (K562) | GI50 (Malme-3M) | GI50 (CAKI-1) | GI50 (HCT-15) [µM] | GI50 (ACHN) | GI50 (HCC 2998) | GI50 (OVCAR-4) | GI50 (SK-OV-3) | GI50 (HL-60) | GI50 (A549) | GI50 (SNB-19) | GI50 (Hs-578T) | GI50 (RPMI-8226) | GI50 (UACC-257) | GI50 (SF-539) | GI50 (COLO 205) | GI50 (A498) | GI50 (HT-29) | GI50 (T47D)
1 | CCCCCCCCCCCCCC(=O)OC(/C=C/C(C)C)C(O)C(O)C(OC)C(=O)NC1CCCCN(C)C1=O (stereo not given) | > 10 µM (inactive) | 2.59 µM (inactive) | 2.11 µM (inactive) | 1.19 µM (inactive) | 6 | 4.31 µM (inactive) | 7.96 µM (inactive) | 6.12 µM (inactive) | 4.49 µM (inactive) | 1.74 µM (inactive) | 0.575 µM (active) | 1.45 µM (inactive) | > 10 µM (inactive) | 2.07 µM (inactive) | 4.84 µM (inactive) | 3.62 µM (inactive) | 1.85 µM (inactive) | 4.67 µM (inactive) | 6.3 µM (inactive) | > 10 µM (inactive)
2 | CC(C)(C)OC(=O)N1C[C@H](CC(=O)OCc2ccccc2)C[C@H]1C(=O)OCC(Cl)(Cl)Cl | 2.64 µM (inactive) | 2 µM (inactive) | 6.28 µM (inactive) | 3.7 µM (inactive) | 3.27 | 5.01 µM (inactive) | 10.7 µM (inactive) | 3.95 µM (inactive) | > 50 µM (inactive) | 2.68 µM (inactive) | 4.69 µM (inactive) | 7.74 µM (inactive) | 8.69 µM (inactive) |  | 5.89 µM (inactive) | 14.5 µM (inactive) | 3.18 µM (inactive) | 3.44 µM (inactive) | 4.7 µM (inactive) | 1.64 µM (inactive)
3 | CCCN(C(=O)c1c(Cl)nnc(Cl)c1C(=O)c1cc(Cl)nnc1Cl)c1cc(Cl)nnc1Cl | 6.7 µM (inactive) | 4.19 µM (inactive) |  | 7.23 µM (inactive) | 4.65 | 12.9 µM (inactive) | 16.9 µM (inactive) | 14.5 µM (inactive) | 33.3 µM (inactive) | 2.48 µM (inactive) | 32.1 µM (inactive) | 27.8 µM (inactive) | 3.24 µM (inactive) | 3.65 µM (inactive) | 14.2 µM (inactive) | 7.28 µM (inactive) | 5.77 µM (inactive) | 15.5 µM (inactive) | 16.7 µM (inactive) | 4.55 µM (inactive)
4 | O=C(Oc1cc(=O)c(OC(=O)c2ccccc2)co1)c1ccccc1 | 83.2 µM (inactive) |  | 25.3 µM (inactive) | > 100 µM (inactive) | 42.6 | > 100 µM (inactive) | > 100 µM (inactive) | 95.7 µM (inactive) | > 100 µM (inactive) | 34.8 µM (inactive) | 84.7 µM (inactive) | 92.7 µM (inactive) | 93.8 µM (inactive) | 47.4 µM (inactive) | > 100 µM (inactive) | 46.5 µM (inactive) | > 100 µM (inactive) | > 100 µM (inactive) | 84.5 µM (inactive) | 65.3 µM (inactive)
5 | CN(C(=O)C12C3C4(C(=O)O)C1(C(=O)N(C)C(C)(C)C)C1C2(C(=O)O)C3(C(=O)N(C)C(C)(C)C)C14C(=O)N(C)C(C)(C)C)C(C)(C)C (stereo not given) | > 100 µM (inactive) | > 100 µM (inactive) |  | > 100 µM (inactive) | > 100 | > 100 µM (inactive) | > 100 µM (inactive) | > 100 µM (inactive) |  | > 100 µM (inactive) | > 100 µM (inactive) | > 100 µM (inactive) | > 100 µM (inactive) |  | > 100 µM (inactive) | > 100 µM (inactive) | > 100 µM (inactive) | > 100 µM (inactive) | > 100 µM (inactive) | > 100 µM (inactive)
6 | CN1C(=O)N(c2ccccc2)C2(CCN(CC3COc4ccccc4O3)CC2)C1=O (stereo not given) | > 100 µM (inactive) | 99.3 µM (inactive) | > 100 µM (inactive) | 32.4 µM (inactive) | > 100 | > 100 µM (inactive) | > 100 µM (inactive) | > 100 µM (inactive) |  | 39.2 µM (inactive) | > 100 µM (inactive) | 5.71 µM (inactive) | > 100 µM (inactive) | 99.1 µM (inactive) | 82.2 µM (inactive) | > 100 µM (inactive) | 87.5 µM (inactive) | > 100 µM (inactive) | 95.1 µM (inactive) | > 100 µM (inactive)
7 | CCOC(=O)C(=CNc1ccc(F)c(F)c1)C(=O)OCC | > 100 µM (inactive) | 39.4 µM (inactive) | > 100 µM (inactive) | > 100 µM (inactive) | 88.3 | > 100 µM (inactive) | > 100 µM (inactive) | 95.3 µM (inactive) | > 100 µM (inactive) | 66.1 µM (inactive) | > 100 µM (inactive) | > 100 µM (inactive) | > 100 µM (inactive) | 64.1 µM (inactive) | > 100 µM (inactive) | > 100 µM (inactive) | > 100 µM (inactive) | > 100 µM (inactive) | 94 µM (inactive) | 69.7 µM (inactive)
8 | O=C1c2ccccc2-c2ccc(/N=[N+](/[O-])c3ccc4c(c3)C(=O)c3ccccc3-4)cc21 | > 100 µM (inactive) | > 100 µM (inactive) | > 100 µM (inactive) | > 100 µM (inactive) | > 100 | > 100 µM (inactive) | > 100 µM (inactive) | > 100 µM (inactive) | > 100 µM (inactive) | > 100 µM (inactive) | > 100 µM (inactive) | > 100 µM (inactive) | > 100 µM (inactive) | > 100 µM (inactive) | > 100 µM (inactive) |  | > 100 µM (inactive) | > 100 µM (inactive) | > 100 µM (inactive) | > 100 µM (inactive)
9 | CCOC(=O)N1CCC2(CC1)CC(=O)N(Nc1ccccc1)C2=O | > 100 µM (inactive) | 16.9 µM (inactive) | > 100 µM (inactive) | > 100 µM (inactive) | > 100 | 9.71 µM (inactive) | > 100 µM (inactive) | > 100 µM (inactive) | > 100 µM (inactive) | 28.9 µM (inactive) | > 100 µM (inactive) | > 100 µM (inactive) | 41.1 µM (inactive) | > 100 µM (inactive) | > 100 µM (inactive) | 27.5 µM (inactive) | > 100 µM (inactive) | > 100 µM (inactive) | 90.2 µM (inactive) | 43.5 µM (inactive)
10 | NC(=O)c1c2c(n3ccccc13)C(=O)c1ccccc1C2=O | > 100 µM (inactive) | > 100 µM (inactive) |  | > 100 µM (inactive) | > 100 | > 100 µM (inactive) | > 100 µM (inactive) | > 100 µM (inactive) | > 100 µM (inactive) | > 100 µM (inactive) |  | 74 µM (inactive) | 96.6 µM (inactive) | > 100 µM (inactive) | 32.1 µM (inactive) | 39.6 µM (inactive) | 39.6 µM (inactive) | > 100 µM (inactive) | 32.2 µM (inactive) | > 100 µM (inactive)
11 | CC(=O)OC1CC2C(C)(C)C(=O)C=CC2(C)C2CCC3(C)C(c4ccoc4)OC(=O)C4OC43C12C (stereo not given) | 5.32 µM (inactive) | 3.54 µM (inactive) |  | 11.9 µM (inactive) | 5.07 | 8.73 µM (inactive) | 3.33 µM (inactive) | 32.4 µM (inactive) | 7.71 µM (inactive) | 5.55 µM (inactive) | 7.66 µM (inactive) | 19.5 µM (inactive) | 3.88 µM (inactive) | 2.64 µM (inactive) | 15.9 µM (inactive) | 6.55 µM (inactive) | 7.5 µM (inactive) | 24.9 µM (inactive) | 7.46 µM (inactive) | 12.5 µM (inactive)
12 | NC(=O)N/N=C1\C[C@H]2CCCC[C@H]2C1 | > 100 µM (inactive) | > 100 µM (inactive) |  | > 100 µM (inactive) | > 100 | > 100 µM (inactive) | > 100 µM (inactive) | > 100 µM (inactive) | > 100 µM (inactive) | > 100 µM (inactive) | > 100 µM (inactive) | 84.7 µM (inactive) | > 100 µM (inactive) | > 100 µM (inactive) | > 100 µM (inactive) | > 100 µM (inactive) | > 100 µM (inactive) | > 100 µM (inactive) | > 100 µM (inactive) | > 100 µM (inactive)
13 | NC(Cc1ccc(S(=O)(=O)O)cc1)C(=O)NC(Cc1ccc(S(=O)(=O)O)cc1)C(=O)NC(Cc1ccc(S(=O)(=O)O)cc1)C(=O)NC(Cc1ccc(S(=O)(=O)O)cc1)C(=O)O (stereo not given) | > 100 µM (inactive) |  | 68.5 µM (inactive) | > 100 µM (inactive) | > 100 | > 100 µM (inactive) | > 100 µM (inactive) | > 100 µM (inactive) | > 100 µM (inactive) | > 10 µM (inactive) | > 100 µM (inactive) |  | > 100 µM (inactive) | > 100 µM (inactive) | > 100 µM (inactive) | > 100 µM (inactive) | > 100 µM (inactive) | > 100 µM (inactive) | > 100 µM (inactive) | > 100 µM (inactive)
14 | O=C1O[C@H]2[C@H](OC(=O)c3cc(O)c(O)c(O)c3)[C@@H](OC(=O)c3cc(O)c(O)c4c3[C@@H]3C1=CC(=O)C(O)(O)C3(O)O4)[C@H](OC(=O)c1cc(O)c(O)c(O)c1)O[C@@H]2COC(=O)c1cc(O)c(O)c(O)c1 (stereo not given in full) [TERCHEBIN] | 53.2 µM (inactive) | 31.9 µM (inactive) | > 100 µM (inactive) | 36.2 µM (inactive) | 36.6 | 27.9 µM (inactive) | 68.2 µM (inactive) | 32.9 µM (inactive) | 38.3 µM (inactive) | 26.7 µM (inactive) | 23.9 µM (inactive) | > 100 µM (inactive) | > 100 µM (inactive) | 51.5 µM (inactive) | > 100 µM (inactive) |  | 39.5 µM (inactive) | > 100 µM (inactive) | 37.4 µM (inactive) | 54.7 µM (inactive)
